Broadly, the kon is the rate constant with which the complex forms.

In the experiment the target is T1, CD81 antigen (Homo sapiens, UniProt P60033).
T1 sequence (P60033 whole entry): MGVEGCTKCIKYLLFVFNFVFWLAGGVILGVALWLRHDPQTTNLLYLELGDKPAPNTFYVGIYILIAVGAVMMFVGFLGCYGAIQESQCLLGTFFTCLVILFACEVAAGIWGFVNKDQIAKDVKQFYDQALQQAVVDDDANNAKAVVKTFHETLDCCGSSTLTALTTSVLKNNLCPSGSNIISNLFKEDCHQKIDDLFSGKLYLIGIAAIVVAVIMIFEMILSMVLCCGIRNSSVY
Description: Binding affinity to CD81 (unknown origin) assessed as […] rate constant by surface plasmon resonance assay. To be noted: read-out: kon (M-1-s-1). A general note: In SPR one partner is held on a chip, and binding of the other changes the refractive index at the surface.

`C/C(=C\CC[C@]1(C)[C@@H](C(=O)O)C[C@H]1[C@](C)(O)C(=O)O)C(=O)O`: the kon is 2.53e+08 M⁻¹ s⁻¹. As to `CC(=O)[C@@H]1C[C@H](C(=O)O)[C@@]1(C)CC/C=C(\C)C(=O)O`, the kon came out at 2.02e+06 M⁻¹ s⁻¹.
